Entries after “also recorded” stand apart in the source; their conditions may differ. Where two headings read alike, the source gives them in different places.
Tests used:
[1] = tested on: MrgprD^−/− (KO) mice; settings: P<0.05 KO vs. WT
Protocol: (§1) The mice were fasted overnight and their fasting glucose levels were measured. […] Blood glucose levels were measured at 30, 60, 90 and 120 minutes after glucose loading.
as §1

[2] = tested on: C57/BL/6J mice and diabetic mouse models; settings: previous studies (Zhang 2013; U.S. Pat. No. 8,664,177); cited from earlier work
[3] = molecular target: T1, MRGD (Homo sapiens, UniProt Q8TDS7); experiment: Calcium mobilization in MRGD over-expressing cells; assay type: cell-based; parameters: host or cells: ChemiScreen over-expressing cell line, given as 'HEK 293T cells (Chem-1, EMD Millipore)'; settings: for activation of calcium mobilization: Example 6, FIG. 10, entire dose range
Protocol: (§2) Cells were grown in DMEM medium containing 10% FBS, 1× non-essential amino acids (Gibco #111450-040), 20 mM HEPES and 250 μg/mL Geneticin® (Gibco #10131-035). Cells were harvested with 0.25% Trypsin/EDTA (Gibco #25200-056), pelleted at 1,200×g for 6 minutes and resuspended in DMEM media described above minus Geneticin®. The cells were seeded at 4×10^4 cells/well/100 μL of a clear bottom/black 96-well plate and grown overnight. The calcium mobilization assays was performed using Screen Quest Fluo-8 Medium Removal Calcium Assay Kit (AAT Bioquest #36308) according to the manufacturer's protocol. Briefly, cells were washed with 100 μL volume of Hank's balanced salt solution, 20 mM HEPES, pH 7.4 and loaded with a buffer containing HBSS, 20 mM HEPES, 1× Pluronic F127 and the Fluo-8 NW dye. The cells were incubated for 30 minutes at 37° C. followed by a 30 minute room temperature incubation. Drug stocks were prepared at 100× concentration and diluted 1:33 in HBSS, 20 mM HEPES, pH 7.4 in a 96-well plate (Corning #3641). Calcium mobilization was measured using the FlexStation 3 (Molecular Devices) at excitation wavelength of 490 nm and emission wavelength of 525 nm. Fluorescence was measured for 180 seconds at 5 second intervals with the addition of compound at a 1:3 dilution after 15 seconds. Peak fluorescence values were calculated using SoftMax Pro 5 (Molecular Devices). The fluorescence values obtained from control wells without cells are subtracted from wells containing treated cells to correct for background. The ratio of fluorescence values of treated cells to vehicle control wells was used to calculate fold activity of the compounds.
MRGD cells (EMD Millipore, MA) were treated with either β-alanine, or alamandine at various concentrations (FIG. 10) and calcium mobilization was monitored using a FlexStation 3 Microplate Reader (Molecular Devices) as described in Example 4.

[4] = tested on: diabetic mice; settings: has been shown; cited from earlier work
[5] = molecular target: GPCR40 (Homo sapiens, UniProt O14842); settings: doses of 5 mM and below; FIG. 7A
Protocol: as §2
(§3) The specificity of the agonist activity was determined by testing in the cell lines that over-express GPCR40 and GPCR 109a.

[6] = molecular target: GPCR109a (Homo sapiens, UniProt Q8TDS4); settings: doses of 5 mM and below; FIG. 6A
Protocol: as §2, §3

[7] = tested on: C57BL/6J mice; experiment: Oral glucose tolerance test (OGTT); assay type: in vivo, mouse; settings: for significance of blood glucose lowering in OGTT / blood glucose in response to a glucose load (OGTT): Example 5, FIG. 9; for blood glucose in response to a glucose load (OGTT): 1, 0.5 and 0.1 mg/g body weight; for overall effect on blood glucose in OGTT: Example 8, FIG. 13, GABA 200 mg/kg, DT-109 1 mg/g, p<0.01 2-way ANOVA; for overall effect on blood glucose in OGTT vs vehicle: Example 9, FIG. 14, DT-110 1 mg/g, alamandine 10 mg/g, metformin 0.2 mg/g
Protocol: (§4) C57BL/6J mice were received from Jackson Laboratories at 4 weeks old and aged to 7 weeks and then grouped by body weight into 4 groups of 10. The mice were fasted overnight (12 hours) prior to the assay. Body weights and blood glucose (FreeStyle Lite glucometer) levels were determined. […] At 30, 60, 90, and 120 minutes glucose levels were measured using whole blood collected from the tip of the tail via needle puncture. Upon the final 120 min measurement, food was returned to the mice.
Oral glucose tolerance tests (OGTTs) were performed as described in Example 1.
as §4, with “puncture.” for “puncture. Upon the final 120 min measurement, food was returned to the mice.”
as §4, with “puncture.” for “puncture. Upon the final 120 min measurement, food was returned to the mice.”

[8] = tested on: STC-1 cells; settings: has been shown; cited from earlier work
[9] = tested on: STC-1 cells; experiment: GLP-1 secretion from STC-1 cells (ELISA); assay type: cell-based, mouse; settings: STC-1 cells, co-treatment with DT-110, 2 hours; FIG. 3
Protocol: The pathways and sites of action of H89 and U73122 are graphically represented in FIG. 2.
Supernatants were collected for GLP-1 measurement. and the GLP-1 concentration was measured using a total GLP-1 (7-36 and 9-36) ELISA kit according to manufacturer's instruction (Alpco. Salem, N.H.).

[10] = molecular target: T1, MRGD; experiment: Calcium mobilization in MRGD cells, antagonist mode; assay type: cell-based; parameters: host or cells: ChemiScreen over-expressing cell line, given as 'HEK 293T cells (Chem-1, EMD Millipore)'; settings: 15 min pre-incubation 30 nM-3 μM, FIG. 11
Protocol: A similar assay was run in the antagonist mode where cells were first incubated with 0, 30 nM, 300 nM or 3 μM alamandine as shown in FIG. 11 (x-axis) for 15 minutes. Then one of 3 different agonists was added to the wells, at their EC90 and the calcium mobilization recorded.

[11] = tested on: eNOS; experiment: eNOS mRNA expression in HUVEC; assay type: cell-based, human; settings: FIG. 15
Source text: It has been shown that activation of MRGD by alamandine plays an important role in vasodilation by increasing nitric oxide (NO) production. NO produced by the endothelium is an important protective molecule in the vasculature and is mainly generated by the enzyme endothelial NO synthase (eNOS) in blood vessels. Enhancing the expression of eNOS has been considered as possible therapeutic strategy for reducing cardiovascular risk.

[12] = molecular target: MAS-related G-protein-coupled receptor member D (MRGD) (human, UniProt Q8TDS7 1-321); experiment: cell-based or functional assay
Sequence of MAS-related G-protein-coupled receptor member D (MRGD) (Q8TDS7 whole entry): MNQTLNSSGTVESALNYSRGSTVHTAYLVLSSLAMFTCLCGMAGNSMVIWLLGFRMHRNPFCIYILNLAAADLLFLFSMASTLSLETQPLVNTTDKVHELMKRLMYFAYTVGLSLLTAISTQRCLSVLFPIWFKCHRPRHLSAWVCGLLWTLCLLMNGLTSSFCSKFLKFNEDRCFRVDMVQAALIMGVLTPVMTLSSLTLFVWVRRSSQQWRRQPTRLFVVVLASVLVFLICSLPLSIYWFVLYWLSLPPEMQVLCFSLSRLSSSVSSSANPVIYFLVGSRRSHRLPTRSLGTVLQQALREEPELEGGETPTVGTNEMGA

T1 sequence (Q8TDS7 whole entry): as above
Sequence of GPCR40 (O14842 whole entry): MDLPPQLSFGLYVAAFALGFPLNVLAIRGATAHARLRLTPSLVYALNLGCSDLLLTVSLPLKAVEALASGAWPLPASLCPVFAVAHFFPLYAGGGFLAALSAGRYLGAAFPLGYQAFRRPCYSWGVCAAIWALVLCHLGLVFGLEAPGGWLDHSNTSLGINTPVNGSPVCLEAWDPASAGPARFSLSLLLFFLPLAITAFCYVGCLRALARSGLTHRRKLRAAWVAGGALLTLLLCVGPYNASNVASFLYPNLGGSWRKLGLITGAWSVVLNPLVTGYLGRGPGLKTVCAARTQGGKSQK
Sequence of GPCR109a (Q8TDS4 whole entry): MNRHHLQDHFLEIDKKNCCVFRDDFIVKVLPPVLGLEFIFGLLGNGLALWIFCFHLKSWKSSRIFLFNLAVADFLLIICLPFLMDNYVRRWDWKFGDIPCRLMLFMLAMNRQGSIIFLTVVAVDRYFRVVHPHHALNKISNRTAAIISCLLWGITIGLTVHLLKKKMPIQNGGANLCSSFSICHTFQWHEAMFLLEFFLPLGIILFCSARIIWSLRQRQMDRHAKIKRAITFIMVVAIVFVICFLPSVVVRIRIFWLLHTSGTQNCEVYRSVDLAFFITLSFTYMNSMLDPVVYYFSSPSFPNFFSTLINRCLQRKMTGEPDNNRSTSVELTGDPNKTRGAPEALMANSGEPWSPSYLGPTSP

CC(C)C[C@H](NC(=O)CNC(=O)CN)C(=O)O
reduction of blood glucose levels in KO mice compared with WT mice (OGTT) ([1]; 0.25 mg/g with 2 mg/g glucose oral): significantly impaired
reduction of blood glucose levels in KO mice compared with WT mice (OGTT) ([1]; 0.5 mg/g with 2 mg/g glucose oral): significantly impaired
blood glucose [2]: lower blood glucose
calcium mobilization activity ([3]; at 5 mM, highest dose used, Example 4): active
GLP-1 level [4]: elevate GLP-1 level
agonist activity (Ca2+ flux) [5]: inactive
agonist activity (Ca2+ flux) [6]: inactive
blood glucose levels during OGTT ([7]; Example 1, FIG. 1A, 2 mg/g glucose plus 1.0, 0.5 or 0.1 mg/g oral gavage, 30-120 min): lowers blood glucose levels in C57BL/6J mice during OGTT in a dose dependent manner
blood glucose area under curve (AUC) in OGTT ([7]; Example 1, FIG. 1B, 1.0, 0.5 or 0.1 mg/g oral, p<0.01 vs control): significantly lowers blood glucose in mice in a dose dependent manner
significance of blood glucose lowering in OGTT ([7]; 0.1 mg/g): significant
significance of blood glucose lowering in OGTT ([7]; 0.5 mg/g): significant
significance of blood glucose lowering in OGTT ([7]; 1 mg/g): significant
blood glucose in response to a glucose load (OGTT) [7]: lower blood glucose in response to a glucose load, in a dose-dependent manner
overall effect on blood glucose in OGTT [7]: overall significant effect in lowering blood glucose
GLP-1 secretion [8]: stimulate GLP-1 secretion

CN(C)C(=N)N=C(N)N [metformin, reference compound]
overall effect on blood glucose in OGTT vs vehicle [7]: significant effect on blood glucose
effect on blood glucose compared with alamandine ([7]; Example 9, P<0.001): significantly better than alamandine

NCCCC(=O)O [GABA, gamma amino butyric acid, reference compound]
EC50 ([3]; Example 7, FIG. 12, read-out: half maximal effective concentration (EC50)): ~68 µM
overall effect on blood glucose in OGTT [7]: overall significant effect in lowering blood glucose

NCCC(=O)O [β-alanine, reference compound]
EC50 ([3]; Example 4, FIG. 8, DT-110 lot 2, read-out: EC50): 7.5 µM
activation of calcium mobilization [3]: stimulated calcium mobilization
potency relative to DT-110 or DT-109 ([3]; FIG. 8): more than 10 fold
significance of blood glucose lowering in OGTT ([7]; 0.1 mg/g): did not
significance of blood glucose lowering in OGTT ([7]; 0.5 mg/g): showed significance
significance of blood glucose lowering in OGTT ([7]; 1 mg/g): showed significance
blood glucose in response to a glucose load (OGTT) [7]: lower blood glucose in response to a glucose load, in a dose-dependent manner

O=S(=O)(NCCNC/C=C/c1ccc(Br)cc1)c1cccc2cnccc12 [H89]
inhibition of DT-110 stimulated GLP-1 secretion [9]: inhibit DT-110 stimulated GLP-1 secretion; also recorded: partially inhibited

COc1ccc2c(c1)CC[C@@H]1[C@@H]2CC[C@]2(C)[C@@H](NCCCCCCN3C(=O)C=CC3=O)CC[C@@H]12 [U73122]
inhibition of DT-110 stimulated GLP-1 secretion [9]: inhibit DT-110 stimulated GLP-1 secretion; also recorded: partially inhibited

alamandine
effect on DT-109 signaling ([10]; DT-109 at EC90): did not have any significant effect
effect on DT-110 signaling ([10]; DT-110 at EC90): did not have any significant effect
effect on β-alanine signaling ([10]; β-alanine at EC90, P<0.05): significantly decreased β-alanine signaling
eNOS mRNA levels ([11]; 30 minutes, vs control): the same
eNOS expression ([11]; 60 minutes): increased eNOS expression
eNOS expression ([11]; 120 minutes): returned to control levels
activation of calcium mobilization [3]: no activation of calcium mobilization; also recorded: did not
overall effect on blood glucose in OGTT vs vehicle [7]: weak but overall significant effect

B1: DT-109, three amino acid peptide glycine-glycine-leucine (GGL) (peptide)
peptide: GGL
EC50, calcium mobilization in MRGD over-expressing cells (FIG. 5) [12]: 600 µM
EC50, calcium mobilization in the MRGD cell line (FIG. 8) [12]: 178 µM

Reference: US20180074053A1 (priority 2016, published 2018)
